#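 Interpolation was linear, between the two tested concentrations surrounding the appropriate level; five concentrations were tested over 48 hours in 96-well plates. At the GI50, growth is halved.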 Calls of active or inactive are those of the source. No stated cut-off is given here; in the data, active = GI50 up to about 1.1 µM and inactive = higher.
# Columns and labels:
# Test in all cases: inhibition of tumour cell growth, NCI panel, 48 h
# KM12 = test system: KM12
# NCI-H226 = test system: NCI-H226
# IGROV-1 = test system: IGROV-1
# SNB-19 = test system: SNB-19
# K562 = test system: K562
# SK-MEL-5 = test system: SK-MEL-5
# 786-0 = test system: 786-0
# OVCAR-8 = test system: OVCAR-8
# SF-268 = test system: SF-268
# CCRF-CEM = test system: CCRF-CEM
# NCI-H23 = test system: NCI-H23
# SNB-78 = test system: SNB-78
# HL-60 = test system: HL-60
# COLO 205 = test system: COLO 205
# DU-145 = test system: DU-145
# RPMI-8226 = test system: RPMI-8226
# T47D = test system: T47D
# MDA-N = test system: MDA-N
# BT-549 = test system: BT-549
# MDA-MB-435 = test system: MDA-MB-435
SMILES,GI50 (KM12),GI50 (NCI-H226),GI50 (IGROV-1),GI50 (SNB-19),GI50 (K562),GI50 (SK-MEL-5),GI50 (786-0),GI50 (OVCAR-8),GI50 (SF-268),GI50 (CCRF-CEM),GI50 (NCI-H23),GI50 (SNB-78),GI50 (HL-60),GI50 (COLO 205),GI50 (DU-145),GI50 (RPMI-8226),GI50 (T47D),GI50 (MDA-N),GI50 (BT-549),GI50 (MDA-MB-435)
O=C(NC1CCCC1=O)c1ccccc1 (configuration not stated),> 100 µM (inactive),98.9 µM (inactive),> 100 µM (inactive),> 100 µM (inactive),> 100 µM (inactive),> 100 µM (inactive),> 100 µM (inactive),> 100 µM (inactive),> 100 µM (inactive),> 100 µM (inactive),> 100 µM (inactive),> 100 µM (inactive),> 100 µM (inactive),–,–,–,–,–,–,–
CC(=O)Nc1ccc(/C=C/C(=O)c2sc(-c3nc(C)c(C(=O)/C=C/c4ccc(NC(C)=O)cc4)s3)nc2C)cc1,> 100 µM (inactive),> 100 µM (inactive),> 100 µM (inactive),> 100 µM (inactive),> 100 µM (inactive),–,> 100 µM (inactive),> 100 µM (inactive),> 10 µM (inactive),> 100 µM (inactive),> 100 µM (inactive),> 100 µM (inactive),> 100 µM (inactive),> 100 µM (inactive),–,–,–,–,–,–
N=C(N)CCNC(=O)C1CCC(N)=N1 (configuration not stated),6.79 µM (inactive),18.1 µM (inactive),8.49 µM (inactive),6.76 µM (inactive),13.2 µM (inactive),16.4 µM (inactive),13.1 µM (inactive),7.28 µM (inactive),10.3 µM (inactive),12.5 µM (inactive),16.1 µM (inactive),–,37.5 µM (inactive),5.61 µM (inactive),4.98 µM (inactive),29.9 µM (inactive),6.5 µM (inactive),21.4 µM (inactive),43.4 µM (inactive),31.5 µM (inactive)
COc1ccc2c(c1)-c1nc(=O)n(CCCN(C)C)c3ccc([N+](=O)[O-])c(c13)N2,0.873 µM (active),3.81 µM (inactive),0.413 µM (active),2.5 µM (inactive),0.0811 µM (active),0.875 µM (active),0.466 µM (active),0.724 µM (active),0.789 µM (active),0.117 µM (active),1.1 µM (active),–,1.86 µM (inactive),0.752 µM (active),0.776 µM (active),0.231 µM (active),15.5 µM (inactive),3.22 µM (inactive),3.85 µM (inactive),2.6 µM (inactive)
CCN(CC)CCCNC(=O)c1cc(-c2nccn2C)nc2ccccc12,> 100 µM (inactive),> 100 µM (inactive),> 100 µM (inactive),> 100 µM (inactive),> 100 µM (inactive),> 100 µM (inactive),> 100 µM (inactive),> 100 µM (inactive),> 100 µM (inactive),> 100 µM (inactive),> 100 µM (inactive),–,> 100 µM (inactive),> 100 µM (inactive),> 100 µM (inactive),> 100 µM (inactive),> 100 µM (inactive),> 100 µM (inactive),> 100 µM (inactive),> 100 µM (inactive)
C[C@H]1[C@H](C)CC[C@]2(C(=O)OC3OC(CO)C(O)C(O)C3O)CC[C@]3(C)C(=CC[C@@H]4[C@@]5(C)C[C@@H](O)[C@@H]6OC(=O)c7cc(O)c(O)c(O)c7-c7c(cc(O)c(O)c7O)C(=O)OC[C@@]6(CO)[C@@H]5CC[C@]43C)[C@H]12 (some centres not stated),58.6 µM (inactive),> 100 µM (inactive),> 100 µM (inactive),> 100 µM (inactive),32.7 µM (inactive),> 84.9 µM (inactive),23.2 µM (inactive),57.1 µM (inactive),> 100 µM (inactive),43.5 µM (inactive),> 100 µM (inactive),–,39.2 µM (inactive),> 100 µM (inactive),> 100 µM (inactive),98.2 µM (inactive),> 100 µM (inactive),21.5 µM (inactive),> 100 µM (inactive),19.6 µM (inactive)
Cc1cc(N(CCC#N)CCC#N)ccc1C(/N=N/c1ccccc1)=N\NC(=O)c1cc(Cl)ccc1O,26.1 µM (inactive),20.5 µM (inactive),26.2 µM (inactive),49 µM (inactive),22.4 µM (inactive),21.5 µM (inactive),23.9 µM (inactive),21.5 µM (inactive),30.1 µM (inactive),16.6 µM (inactive),13.1 µM (inactive),–,37.9 µM (inactive),19.7 µM (inactive),27.5 µM (inactive),64.7 µM (inactive),11.4 µM (inactive),32.6 µM (inactive),18.2 µM (inactive),36.4 µM (inactive)
O=C(CC(O)(C(F)(F)F)C(F)(F)F)c1cc(CC(=O)C(O)(C(F)(F)F)C(F)(F)F)cc(CC(=O)C(O)(C(F)(F)F)C(F)(F)F)c1,0.512 µM (active),3.01 µM (inactive),1.65 µM (inactive),2.67 µM (inactive),> 10 µM (inactive),1.57 µM (inactive),1.79 µM (inactive),1.95 µM (inactive),2.67 µM (inactive),> 10 µM (inactive),0.867 µM (active),–,> 10 µM (inactive),1.61 µM (inactive),1.97 µM (inactive),> 10 µM (inactive),0.419 µM (active),2.64 µM (inactive),1.71 µM (inactive),1 µM (active)
COC(=O)/C=C1/OC(c2ccc(Br)cc2)=C(Br)C1=O,8.07 µM (inactive),14.4 µM (inactive),6.34 µM (inactive),10.4 µM (inactive),2.47 µM (inactive),7.48 µM (inactive),2.4 µM (inactive),3.29 µM (inactive),6.93 µM (inactive),1.82 µM (inactive),6.7 µM (inactive),–,2.06 µM (inactive),1.89 µM (inactive),12.7 µM (inactive),2.26 µM (inactive),5.55 µM (inactive),5.26 µM (inactive),5.28 µM (inactive),7.67 µM (inactive)
CC(=O)C(I(OS(=O)(=O)c1ccc(C)cc1)c1ccccc1)=P(c1ccccc1)(c1ccccc1)c1ccccc1,16.2 µM (inactive),17.1 µM (inactive),35.6 µM (inactive),38.5 µM (inactive),30.6 µM (inactive),22.1 µM (inactive),30.1 µM (inactive),32.6 µM (inactive),23.7 µM (inactive),26.9 µM (inactive),18.1 µM (inactive),–,30.3 µM (inactive),17.1 µM (inactive),18.8 µM (inactive),21.4 µM (inactive),27 µM (inactive),15 µM (inactive),18.9 µM (inactive),15.8 µM (inactive)
CN1CCc2c(sc3ncn(Nc4ccc(Cl)cc4)c(=N)c23)C1,> 100 µM (inactive),> 100 µM (inactive),> 100 µM (inactive),> 100 µM (inactive),> 100 µM (inactive),> 100 µM (inactive),> 100 µM (inactive),> 100 µM (inactive),> 100 µM (inactive),> 100 µM (inactive),> 100 µM (inactive),–,> 100 µM (inactive),> 100 µM (inactive),> 100 µM (inactive),> 100 µM (inactive),> 100 µM (inactive),> 100 µM (inactive),> 100 µM (inactive),> 100 µM (inactive)

# — ChEMBL document CHEMBL1201862, “PubChem BioAssay data set” (2004)
